Drawing on ChEMBL document CHEMBL5608218, “Identification of 6,9-dihydro-5H-pyrrolo[3,2-h]quinazolines as a new class of F508del-CFTR correctors for the treatment of cystic fibrosis” (Eur J Med Chem, 2024), this text covers Activity, EC50 and fold change (FC) for 17 compounds.

Structures are written as SMILES. Active and inactive are the calls of the source. The rule behind the calls is not given here.

Assay type in all cases: cell-based
Test [1] deals with Cystic fibrosis transmembrane conductance regulator (Homo sapiens), P13569 [F508del]. The experiment in a line: Corrector activity at CFTR F508del mutant (unknown origin) expressed in human CFBE41o- cells co-expressing halide-sensitive yellow fluorescent protein assessed as increase in iodide influx at 1 to 10 uM preincubated with compound for 24 hrs in presence of VX-809 followed by compound washout and measured after 30 mins of stimulation with forskolin/genistein by fluorescence microplate reader. Particulars: filed as activator, dose 1-10 µM.
Chain of Cystic fibrosis transmembrane conductance regulator (Homo sapiens), P13569 [F508del] (P13569 as listed by the source): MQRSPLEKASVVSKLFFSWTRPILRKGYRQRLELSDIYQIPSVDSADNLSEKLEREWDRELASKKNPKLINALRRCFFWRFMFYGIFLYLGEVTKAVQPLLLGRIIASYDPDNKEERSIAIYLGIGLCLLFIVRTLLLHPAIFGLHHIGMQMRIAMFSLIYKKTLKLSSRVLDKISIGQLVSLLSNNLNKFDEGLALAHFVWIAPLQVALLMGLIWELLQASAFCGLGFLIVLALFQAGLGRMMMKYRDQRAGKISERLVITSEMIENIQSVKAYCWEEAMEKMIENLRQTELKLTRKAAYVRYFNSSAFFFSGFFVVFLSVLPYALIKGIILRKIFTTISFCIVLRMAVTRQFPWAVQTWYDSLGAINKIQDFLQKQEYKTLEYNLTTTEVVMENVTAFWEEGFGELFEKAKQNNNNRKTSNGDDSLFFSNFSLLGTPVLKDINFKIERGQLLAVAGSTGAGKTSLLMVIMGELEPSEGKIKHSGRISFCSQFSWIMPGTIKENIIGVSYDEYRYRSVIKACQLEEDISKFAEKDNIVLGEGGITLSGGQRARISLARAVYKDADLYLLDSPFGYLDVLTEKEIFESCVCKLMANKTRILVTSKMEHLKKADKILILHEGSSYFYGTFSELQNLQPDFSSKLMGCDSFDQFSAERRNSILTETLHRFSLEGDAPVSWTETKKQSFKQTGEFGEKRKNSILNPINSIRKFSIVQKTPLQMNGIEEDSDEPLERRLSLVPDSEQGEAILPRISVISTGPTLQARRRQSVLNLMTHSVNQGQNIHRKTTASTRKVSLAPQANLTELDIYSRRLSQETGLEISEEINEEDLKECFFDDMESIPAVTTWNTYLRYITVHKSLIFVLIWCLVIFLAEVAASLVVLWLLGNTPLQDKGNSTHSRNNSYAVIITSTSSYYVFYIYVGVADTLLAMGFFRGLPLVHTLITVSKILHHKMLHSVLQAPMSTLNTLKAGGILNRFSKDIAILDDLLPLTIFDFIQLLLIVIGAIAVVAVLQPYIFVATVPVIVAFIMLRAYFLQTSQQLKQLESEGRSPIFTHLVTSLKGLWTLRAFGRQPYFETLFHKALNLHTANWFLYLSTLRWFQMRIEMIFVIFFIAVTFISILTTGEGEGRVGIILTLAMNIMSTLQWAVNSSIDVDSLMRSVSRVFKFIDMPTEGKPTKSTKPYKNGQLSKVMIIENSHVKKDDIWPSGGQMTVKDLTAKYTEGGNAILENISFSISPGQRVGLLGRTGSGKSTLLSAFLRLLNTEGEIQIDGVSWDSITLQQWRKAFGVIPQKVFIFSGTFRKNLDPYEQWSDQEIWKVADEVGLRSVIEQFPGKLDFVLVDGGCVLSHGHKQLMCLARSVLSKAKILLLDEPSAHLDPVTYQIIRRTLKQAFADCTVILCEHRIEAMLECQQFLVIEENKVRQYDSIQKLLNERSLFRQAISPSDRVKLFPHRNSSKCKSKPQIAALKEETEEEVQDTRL

For test [2] the test system is unchanged. The test can be described thus: Corrector activity at CFTR F508del mutant (unknown origin) expressed in human CFBE41o- cells co-expressing halide-sensitive yellow fluorescent protein assessed as increase in iodide influx at 1 to 10 uM preincubated with compound for 24 hrs followed by compound washout and measured after 30 mins of stimulation with forskolin/genistein by fluorescence microplate reader. Particulars: dose 1-10 µM.

For test [3], the target named is T1, Cystic fibrosis transmembrane conductance regulator (Homo sapiens, UniProt P13569, F508DEL). The experiment in a line: Corrector activity at CFTR F508del mutant (unknown origin) expressed in human CFBE41o- cells co-expressing halide-sensitive yellow fluorescent protein assessed as increase in iodide influx preincubated with compound for 24 hrs followed by compound washout and measured after 30 mins of stimulation with forskolin/genistein by fluorescence microplate reader.
T1 sequence (P13569 as listed by the source): as above

In test [4] the target is T1, Cystic fibrosis transmembrane conductance regulator. The test can be described thus: Corrector activity at CFTR F508del mutant (unknown origin) expressed in human CFBE41o- cells co-expressing halide-sensitive yellow fluorescent protein assessed as increase in iodide influx preincubated with compound for 24 hrs in presence of VX-809 followed by compound washout and measured after 30 mins of stimulation with forskolin/genistein by fluorescence microplate reader.

Test [5] has as its system Cystic fibrosis transmembrane conductance regulator (Homo sapiens), P13569 [F508del]. The test can be described thus: Corrector activity at CFTR F508del mutant (unknown origin) expressed in human CFBE41o- cells co-expressing halide-sensitive yellow fluorescent protein assessed as increase in iodide influx by measuring fold change preincubated with compound for 24 hrs in presence of VX-809 followed by compound washout and measured after 30 mins of stimulation with forskolin/genistein by fluorescence microplate reader relative to VX-809 alone. Particulars: filed as activator.

Test [6] shares this test system. The test can be described thus: Corrector activity at CFTR F508del mutant (unknown origin) expressed in human CFBE41o- cells co-expressing halide-sensitive yellow fluorescent protein assessed as increase in iodide influx at 10 uM preincubated with compound for 24 hrs in presence of corr-4a followed by compound washout and measured after 30 mins of stimulation with forskolin/genistein by fluorescence microplate reader. Particulars: filed as activator.

Test [7] has the same test system. The experiment in a line: Corrector activity at CFTR F508del mutant (unknown origin) expressed in human CFBE41o- cells co-expressing halide-sensitive yellow fluorescent protein assessed as increase in iodide influx at 10 uM preincubated with compound for 24 hrs in presence of VX-445 followed by compound washout and measured after 30 mins of stimulation with forskolin/genistein by fluorescence microplate reader.

As to `CCOC(=O)c1c(Br)c2c(n1Cc1ccc(C)c(C)c1)-c1nc(NS(=O)(=O)c3ccccc3)ncc1CC2`, the outcome in test [1] and in test [2] (filed as activator) was Active.
One may read the EC50 as the concentration giving half of the maximal effect. With `CCOC(=O)c1c(Br)c2c(n1Cc1cccc(C)c1)-c1[nH]c(=O)c(S(=O)(=O)c3ccccc3)cc1CC2`, the EC50 in test [3] came to 750 nM; in test [4], 450 nM. Besides, in test [5], the fold change (FC) came to 2.4. For the same compound, in test [6], the result was Active. Besides, the outcome in test [7] was inactive.
In the case of `CCOC(=O)c1c(Br)c2c(n1Cc1ccc(F)c(Br)c1)-c1nc(NS(=O)(=O)c3ccccc3)ncc1CC2`, the outcome in test [1] and in test [2] (filed as activator) was Active.
As to `CCOC(=O)c1c(Br)c2c(n1Cc1ccc(Br)cc1)-c1nc(NS(=O)(=O)c3ccccc3)ncc1CC2`, in test [1], the outcome was Active. The result in test [2] was inactive.
Consider `CCOC(=O)c1cc2c(n1Cc1cccc(C)c1)-c1nc(NS(=O)(=O)c3ccccc3)ncc1CC2`, for which the result in test [1] was Active.
As for `CCOC(=O)c1c(Br)c2c(n1Cc1ccc(C)cc1)-c1nc(NS(=O)(=O)c3ccccc3)ncc1CC2`, the outcome in test [2] was inactive.
Turning to `Cc1cccc(Cn2c(C(=O)OC(C)C)c(Br)c3c2-c2nc(NS(=O)(=O)c4ccccc4)ncc2CC3)c1`, the result in test [1] was Active.
As for `CCOC(=O)c1cc2c(n1Cc1ccc(Br)cc1)-c1nc(NS(=O)(=O)c3ccccc3)ncc1CC2`, the result in test [2] was inactive.
`CCOC(=O)c1c(Br)c2c(n1Cc1cccc(Br)c1)-c1nc(NS(=O)(=O)c3ccccc3)ncc1CC2`: the outcome in test [1], in test [2] (filed as activator) and in test [6] was Active. In addition, the EC50 in test [3] worked out at 3080 nM; in test [4] it was 2120 nM. For the same compound, in test [5], the fold change (FC) was 2.3. Besides, the result in test [7] was inactive.
For the compound `CCOC(=O)c1cc2c(n1CC1CC1)-c1nc(NS(=O)(=O)c3ccccc3)ncc1CC2`, the outcome in test [2] was inactive.
`CCOC(=O)c1cc2c(n1Cc1ccc(F)c(Br)c1)-c1nc(NS(=O)(=O)c3ccccc3)ncc1CC2`: the result in test [1] and in test [2] (filed as activator) was Active.
For the compound `CCOC(=O)c1cc2c(n1Cc1ccc(C)cc1)-c1nc(NS(=O)(=O)c3ccccc3)ncc1CC2`, the result in test [2] was inactive.
With `CCOC(=O)c1c(Cl)c2c(n1Cc1cccc(C)c1)-c1nc(NS(=O)(=O)c3ccccc3)ncc1CC2`, the outcome in test [1] and in test [6] was Active. In addition, the concentration for a half-maximal effect (EC50) in test [3] worked out at 3140 nM; in test [4], 1880 nM. For the same compound, the fold change (FC) in test [5] was 2.1. The result in test [7] was inactive.
For the compound `CCOC(=O)c1cc2c(n1Cc1cccc(Br)c1)-c1nc(NS(=O)(=O)c3ccccc3)ncc1CC2`, the result in test [2] was inactive.
For `CCOC(=O)c1c(Br)c2c(n1Cc1cccc(C)c1)-c1nc(NS(=O)(=O)c3ccccc3)ncc1CC2`, in test [1], the outcome was Active.
In the case of `CCOC(=O)c1c(Br)c2c(n1Cc1ccc(F)cc1)-c1nc(NS(=O)(=O)c3ccccc3)ncc1CC2`, the result in test [2] was inactive.
In the case of `CCOC(=O)c1c(Br)c2c(n1CC1CC1)-c1nc(NS(=O)(=O)c3ccccc3)ncc1CC2`, the result in test [1] was Active. Also, the outcome in test [2] was inactive.
